Test results published in PMC9499324, “Glycyrrhizic Acid Derivatives Bearing Amino Acid Residues in the Carbohydrate Part as Dengue Virus E Protein Inhibitors: Synthesis and Antiviral Activity” (International Journal of Molecular Sciences, 2022).

Tests used:
DENV2 [1] = experiment: DENV2-induced cytopathic effect (CPE) reduction screening in Vero E6 cells; type: cell-based, Dengue virus type 2; settings: for inhibition at 10 µM: Dengue virus
Protocol: (§1) In the antiviral screening assay, each tested GL conjugate at 10 μM was used to survey the anti-DENV activity in Vero E6 cells using cytopathic effect (CPE) and infectivity reduction assays as described in our prior report. In CPE and infectivity reduction assays, Vero E6 cells were infected by DENV2 at an MOI of 0.005 and simultaneously treated 10 μM of indicated GL conjugate for 96 h, and then photographed by microscope for examining the levels of DENV2-induced CPE in infected cells treated with or without GL conjugate. Meanwhile, the cells were further performed using immunofluorescence assay (IFA) with anti-DENV NS4B antibodies (GeneTex, Inc., Hsinchu, Taiwan) and anti-rabbit IgG antibodies conjugated with AF555 (ThermoFisher, Waltham, MA, USA) plus DAPI (4′,6-diamidino-2-phenylindole) nuclear staining. Finally, the DENV-2 infectivity was measured according to the ratio of DENV NS4B-positive cells to DAPI-stained cells in the well of mock-treated or treated cells, as described in [45, 59, 60].

DENV2 [2] = experiment: DENV2 infectivity inhibition (anti-NS4B immunofluorescence) in Vero E6 cells; type: cell-based, Dengue virus type 2; settings: for inhibition at 10 µM: Vero C1008, 10 μM compound, DENV2, Vero E6 cells, 96 h, read-out: Inhibition (%) at 10 μM (reduction of NS4B-positive cells); for Selectivity Index (CC50/ IC50): DENV2
Excerpt: as §1, with “In the antiviral screening assay, each tested GL conjugate at 10 μM was used to survey the anti-DENV activity in Vero E6 cells using cytopathic effect (CPE) and infectivity reduction assays as described in our prior report.” left out, “[…],” for “Vero E6 cells were infected by DENV2 at an MOI of 0.005 and simultaneously treated 10 μM of indicated GL conjugate for 96 h,”

[3] = MTT cytotoxicity assay in Vero E6 cells; type: cell-based; settings: African green monkey
Protocol: (§2) Vero E6 cells and A549 cells (5 × 10^3 cells/well) were treated with the serial dilution of GL conjugates at 0, 0.1, 10, 20, and 50 μM for examining the in vitro cytotoxicity of tested compounds. After 96-h incubation at 37 °C, the cells were incubated with MTT (3-(4,5-Dimethylthiazol-2-yl)-2,5-Diphenyltetrazolium Bromide) solution for another 4 h incubation, mixed with DMSO for 15 min after the removal of media, and then measured the absorbance at 570 nm. The viability (%) of treated cells was quantified according to the reduced ability of MTT. Finally, the concentration for reducing 50% cell viability (the 50% cytotoxic concentration, CC50) was determined by regression analysis of the concentration–response survival curve.

[4] = design: method as in earlier work; settings: mammals; cited from earlier work
DENV2 [5] = experiment: DENV2 infectivity inhibition (anti-NS4B immunofluorescence) in A549 cells; type: cell-based, Dengue virus type 2
DENV1 and DENV2 = experiment: DENV infectivity inhibition, summary over DENV1 and DENV2 in Vero E6 and A549 cells; type: cell-based, Dengue virus; settings: Dengue virus, range over DENV1 and DENV2, Vero E6 and A549 cells; read-out: IC50 in DENV infectivity (range over assays)
Excerpt: as §1, with “In the antiviral screening assay, each tested GL conjugate at 10 μM was used to survey the anti-DENV activity in Vero E6 cells using cytopathic effect (CPE) and infectivity reduction assays as described in our prior report.” left out, “[…],” for “Vero E6 cells were infected by DENV2 at an MOI of 0.005 and simultaneously treated 10 μM of indicated GL conjugate for 96 h,”

DENV1 = DENV1 infectivity inhibition assay in Vero E6 cells; type: cell-based; settings: Dengue virus, DENV1, Vero C1008, read-out: IC50 in the DENV1 infectivity inhibition assay
Protocol: as §1
Supplemental Figure S25. Infectivity inhbition of DENV1 in Vero E6 cells by active GL conjugates. Cells were infected with DENV1 in the presence and absence of Compounds 3, 6, 11, and 21 at the concentrations of 0.1, 1, and 10 μM, respectively. Treated/infected Vero E6 cells were also analyzed using immunofluorescence staining with anti-DENV2 NS4B antibodies.
Residual infectivity was discovered by the ratio of DENV2 NS4B positive cells to total cells stained with DAPI, and relative inhibition activity was determined based on full infectivity with the subtraction of its residual infectivity.
(1 picture or pasted object on this page, not shown here)

DENV2 [6] = experiment: Time-of-addition/compound removal assay with DENV2 in Vero E6 cells; type: cell-based, Dengue virus type 2; settings: time-of-addition/removal, Vero E6 cells
Protocol: Figure 5 Time-of-addition and removal assay for analyzing antiviral action of compounds 3 (A), 6 (B), 11 (C), and 21 (D) in Vero E6 cells. In the attachment mode, cells were pre-cooled and incubated with fresh-prepared mixtures of active compounds with DENV2 at 4 °C for 1 h. After the removal of the mixtures, the cells were kept at 37 °C for 96 h (a cycle of viral replication) and then were performed by immunofluorescent assay plus DAPI staining. In entry and post-entry modes, cells were infected with DENV2 and treated with the compounds simultaneously (the entry stage) or 1-h post-infection (post-entry stage). After a 1 h incubation period, the virus/compound mixture was removed; the cell monolayer was washed with PBS and cultured for 96 h and then subjected to immunofluorescence staining and DAPI. Finally, the inhibition percentage of DENV2 infectivity was calculated as follows: 1-(percentage of NS4B positivity in treated cells/percentage of NS4B positivity in mock-treated cells). *** p < 0.001 compared with the other two antiviral action modes.
The time-of-addition assays consisted of three modes including attachment treatment/removal, entry-treatment/removal, and post-entry treatment/removal modes. In the attachment-treatment/removal mode, Vero E6 cells monolayer in 6-well plate was placed at 4 °C for 2 h and incubated with the fresh-prepared mixture of DENV-2 (MOI = 0.005) with the active compound at indicated concentrations for 2 h at 4 °C, and then washed with phosphate-buffered saline (PBS). In the entry-treatment/removal mode, Vero E6 cells were simultaneously treated with the active compound and infected DENV-2 (MOI = 0.005) in 6-well plates, incubated for 1 h at 37 °C, and then washed with PBS. In the post-entry treatment/removal mode, the cells were infected with DENV-2 for 1 h at 37 °C, treated with the active compounds at indicated concentrations for 1 h at 37 °C, respectively, and then washed by PBS. After active compound removal (washout), the cells were incubated at 37 °C for 96 h, and then were analyzed by immunofluorescent and DAPI staining assay for determining the residual DENV-2 infectivity, as described above. The inhibitory activity of the transient treatment by active compounds on attachment, entry, and post-entry stages of DENV replication in vitro was determined based on the residual infectivity.

[7] = MTT cytotoxicity assay in A549 cells; type: cell-based; settings: human
Protocol: as §2

[8] = 10 μM compound, DENV2, Vero E6 cells, 96 h
[9] = Vero C1008, 10 μM compound, DENV2, Vero E6 cells, 96 h, read-out: CPE Reduction at 10 μM

CC[C@H](C)[C@H](NC(=O)[C@H]1O[C@@H](O[C@H]2[C@H](OC3CC[C@@]4(C)C(CC[C@]5(C)C4C(=O)C=C4C6C[C@@](C)(C(=O)O)CC[C@]6(C)CC[C@]45C)C3(C)C)O[C@H](C(=O)N[C@H](C(=O)OC)[C@@H](C)CC)[C@@H](O)[C@@H]2O)[C@H](O)[C@@H](O)[C@@H]1O)C(=O)OC (stereo partly drawn) [Compound 4, 3-O-{2-O-[N-(β-D-Glucopyranosyluronoyl)-L-isoleucinemethyl ester]-N-(β-D-glucopyranosyluronoyl)-L-isoleucinemethyl ester}-(3β, 20β)-11-oxo-30-norolean-12-ene-30-oic Acid]
CPE Reduction at 10 μM (DENV2 [1]; [8]): −

CCOC(=O)[C@@H](Cc1ccccc1)NC(=O)CNC(=O)[C@H]1O[C@@H](O[C@H]2[C@H](OC3CC[C@@]4(C)C(CC[C@]5(C)C4C(=O)C=C4C6C[C@@](C)(C(=O)O)CC[C@]6(C)CC[C@]45C)C3(C)C)O[C@H](C(=O)NCC(=O)N[C@H](Cc3ccccc3)C(=O)OCC)[C@@H](O)[C@@H]2O)[C@H](O)[C@@H](O)[C@@H]1O (stereo partly drawn) [Compound 16, 3-O-{2-O-[N-(β-D-Glucopyranosyluronoyl)-glycyl-L-phenylalanineethyl ester]-N-(β-D-glucopyranosyluronoyl)-glycyl-L-phenylalanineethyl ester}-(3β,20β)-11-oxo-30-noroleane-12-ene-30-acid]
inhibition at 10 µM (DENV2 [1]; [9]): 50 to 75%
inhibition at 10 µM (DENV2 [2]; Dengue virus): 63.8%

COC(=O)[C@@H](NC(=O)[C@H]1O[C@@H](O[C@H]2[C@H](OC3CC[C@@]4(C)C(CC[C@]5(C)C4C(=O)C=C4C6C[C@@](C)(C(=O)O)CC[C@]6(C)CC[C@]45C)C3(C)C)O[C@H](C(=O)N[C@H](C(=O)OC)C(C)C)[C@@H](O)[C@@H]2O)[C@H](O)[C@@H](O)[C@@H]1O)C(C)C (stereo partly drawn) [Compound 2, 3-O-{2-O-[N-(β-D-Glucopyranosyluronoyl)-L-valinemethyl ester]-N-(β-D-glucopyranosyluronoyl)-L-valinemethyl ester}-(3β, 20β)-11-oxo-30-norolean-12-ene-30-oic Acid]
CPE Reduction at 10 μM (DENV2 [1]; [8]): −

CC1(C)[C@@H](O[C@H]2O[C@H](C(=O)O)[C@@H](O)[C@H](O)[C@H]2O[C@@H]2O[C@H](C(=O)O)[C@@H](O)[C@H](O)[C@H]2O)CC[C@]2(C)[C@H]3C(=O)C=C4[C@@H]5C[C@@](C)(C(=O)O)CC[C@]5(C)CC[C@@]4(C)[C@]3(C)CC[C@@H]12 [Compound 1, Glycyrrhizic acid]
CC50 at 96 h [3]: > 100 µM
inhibition at 10 µM (DENV2 [1]; [9]): 50 to 75%
LD50 [4]: 5000 mg/kg
IC50 (DENV2 [2]; Dengue virus, DENV2, Vero C1008, Vero E6 cells, read-out: Inhibition of DENV2 Infectivity (IC50)): 8.1 ± 0.21 µM
inhibition at 10 µM (DENV2 [2]; Dengue virus): 70.5%
Selectivity Index (CC50/ IC50) (DENV2 [2]; Vero E6 cells): >12.3

COC(=O)[C@@H](Cc1ccc(O)cc1)NC(=O)[C@H]1O[C@@H](O[C@H]2[C@H](OC3CC[C@@]4(C)C(CC[C@]5(C)C4C(=O)C=C4C6C[C@@](C)(C(=O)O)CC[C@]6(C)CC[C@]45C)C3(C)C)O[C@H](C(=O)N[C@H](Cc3ccc(O)cc3)C(=O)OC)[C@@H](O)[C@@H]2O)[C@H](O)[C@@H](O)[C@@H]1O (stereo partly drawn) [Compound 7, 3-O-{2-O-[N-(β-D-Glucopyranosyluronoyl)-D-tyrosinemethyl ester]-N-(β-D-glucopyranosyluronoyl)-D-tyrosinemethyl ester}-(3β, 20β)-11-oxo-30-noroleane-12-ene-30-oic Acid]
inhibition at 10 µM (DENV2 [1]; DENV2, Vero C1008, read-out: CPE inhibition): 25 to 50%
inhibition at 10 µM (DENV2 [1]; [9]): 25 to 50%
inhibition at 10 µM (DENV2 [2]; Dengue virus): 51.7%

CCOC(=O)CCNC(=O)[C@H]1O[C@@H](O[C@H]2[C@H](OC3CC[C@@]4(C)C(CC[C@]5(C)C4C(=O)C=C4C6C[C@@](C)(C(=O)O)CC[C@]6(C)CC[C@]45C)C3(C)C)O[C@H](C(=O)NCCC(=O)OCC)[C@@H](O)[C@@H]2O)[C@H](O)[C@@H](O)[C@@H]1O (stereo partly drawn) [Compound 15, 3-O-{2-O-[N-(β-D-Glucopyranosyluronoyl)-β-alanineethyl ester]-N-(β-D-glucopyranosyluronoyl)-β-alanineethyl ester}-(3β, 20β)-11-oxo-30-noroleane-12-ene-30-acid]
inhibition at 10 µM (DENV2 [1]; [9]): 25 to 50%
inhibition at 10 µM (DENV2 [2]; Dengue virus): 53.6%

COC(=O)[C@H](CCSC)NC(=O)[C@H]1O[C@@H](O[C@H]2[C@H](OC3CC[C@@]4(C)C(CC[C@]5(C)C4C(=O)C=C4C6C[C@@](C)(C(=O)O)CC[C@]6(C)CC[C@]45C)C3(C)C)O[C@H](C(=O)N[C@@H](CCSC)C(=O)OC)[C@@H](O)[C@@H]2O)[C@H](O)[C@@H](O)[C@@H]1O (stereo partly drawn) [Compound 8, 3-O-{2-O-[N-(β-D-Glucopyranosyluronoyl)-L-methioninemethyl ester]-N-(β-D-glucopyranosyluronoyl)-L-methioninemethyl ester}-(3β, 20β)-11-oxo-30-noroleane-12-ene-30-oic Acid]
inhibition at 10 µM (DENV2 [1]; [9]): 25 to 50%
inhibition at 10 µM (DENV2 [2]; Dengue virus): 51.6%

COC(=O)[C@H](Cc1ccc(O)cc1)NC(=O)[C@H]1O[C@@H](O[C@H]2[C@H](OC3CC[C@@]4(C)C(CC[C@]5(C)C4C(=O)C=C4C6C[C@@](C)(C(=O)O)CC[C@]6(C)CC[C@]45C)C3(C)C)O[C@H](C(=O)N[C@@H](Cc3ccc(O)cc3)C(=O)OC)[C@@H](O)[C@@H]2O)[C@H](O)[C@@H](O)[C@@H]1O (stereo partly drawn) [Compound 6, 3-O-{2-O-[N-(β-D-glucopyranosyluronoyl)-L-tyrosinemethyl ester]-N-(β-D-glucopyranosyluronoyl)-L-tyrosinemethyl ester}-(3β,20β)-11-oxo-30-noroleane-12-ene-30-oic acid]
Selectivity Index (CC50/ IC50) (DENV2 [5]): >1000
IC50 (DENV2 [5]; Dengue virus): < 0.1 µM
IC50 (DENV1 and DENV2): 0.1 to 5.98 µM
IC50 (DENV1): < 0.1 µM
CC50 at 96 h [3]: > 100 µM
inhibition at 10 µM (DENV2 [1]; [9]): 75 to 100%
Stage of DENV2 replication affected (attachment, entry, post-entry modes) (DENV2 [6]): predominantly impeded the post-entry stage
IC50 (DENV2 [2]; Dengue virus, DENV2, Vero C1008, read-out: Inhibition of DENV2 Infectivity (IC50, μM), Vero E6 cells): 6 µM
inhibition at 10 µM (DENV2 [2]; Dengue virus): 94%
Selectivity Index (CC50/ IC50) (DENV2 [2]; Vero E6 cells): >16.7
IC50 (DENV2 [2]; Vero E6 cells, read-out: Inhibition of DENV2 Infectivity (IC50)): 5.98 ± 0.41 µM
CC50 at 96 h [7]: > 100 µM
